Experimental data from doi:10.1101/2025.02.26.640120v1 (biorxiv, 2025).
Read-outs that look alike come from different tables or passages of the source. Blank lines part the entries; values can stand above or below the compound they belong to.

Tests used:
AtT-20 = assay: in vitro; details: Ambinter Amb2704313 batch; 24 h
in vitro [1] = assay: in vitro; design: species or system AtT-20; details: mouse, att-20 cells, AtT-20 cell viability at 25µM, % of control
in vitro [2] = details: mouse, att-20 cells
full length USP8 = target: T1, full length USP8 (Homo sapiens, UniProt P40818); assay: Ub-Rho hydrolysis, dose response; format: biochemical
T1 sequence (P40818 1-1118): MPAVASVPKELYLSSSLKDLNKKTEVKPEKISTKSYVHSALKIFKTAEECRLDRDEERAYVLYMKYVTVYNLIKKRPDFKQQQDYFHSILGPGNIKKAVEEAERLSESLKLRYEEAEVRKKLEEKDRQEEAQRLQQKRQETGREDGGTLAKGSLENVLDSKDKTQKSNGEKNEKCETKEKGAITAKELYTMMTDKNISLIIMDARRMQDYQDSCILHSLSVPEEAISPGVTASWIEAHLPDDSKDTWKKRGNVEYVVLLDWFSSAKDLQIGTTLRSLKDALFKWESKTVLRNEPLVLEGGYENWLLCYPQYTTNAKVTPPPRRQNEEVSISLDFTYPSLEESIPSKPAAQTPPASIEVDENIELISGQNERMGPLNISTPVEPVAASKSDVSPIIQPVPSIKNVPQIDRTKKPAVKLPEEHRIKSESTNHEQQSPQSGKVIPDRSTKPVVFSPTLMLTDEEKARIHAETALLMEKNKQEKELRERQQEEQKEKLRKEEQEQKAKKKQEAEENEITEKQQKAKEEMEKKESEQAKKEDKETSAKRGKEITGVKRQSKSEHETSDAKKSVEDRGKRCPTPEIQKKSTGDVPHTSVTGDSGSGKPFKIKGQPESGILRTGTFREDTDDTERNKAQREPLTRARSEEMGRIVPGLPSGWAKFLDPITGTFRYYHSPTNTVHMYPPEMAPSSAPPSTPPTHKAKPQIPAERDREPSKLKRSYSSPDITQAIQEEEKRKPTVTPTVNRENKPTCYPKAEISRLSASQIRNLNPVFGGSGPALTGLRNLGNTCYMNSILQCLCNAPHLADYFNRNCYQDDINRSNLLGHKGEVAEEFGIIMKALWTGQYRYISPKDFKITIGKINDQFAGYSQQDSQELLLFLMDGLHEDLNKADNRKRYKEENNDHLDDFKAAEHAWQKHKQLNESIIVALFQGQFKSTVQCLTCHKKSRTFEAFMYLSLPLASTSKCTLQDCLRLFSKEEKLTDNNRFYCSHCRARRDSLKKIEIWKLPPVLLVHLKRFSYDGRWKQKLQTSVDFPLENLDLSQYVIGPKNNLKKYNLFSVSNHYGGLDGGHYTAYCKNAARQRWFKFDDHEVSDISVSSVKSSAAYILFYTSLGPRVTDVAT

in vitro [3] = details: mouse, att-20 cells; remark: listed apart in the source

Compound: O=C(Nc1ccc(Oc2ccc(Cl)cc2)c(Cl)c1)c1cc(I)cc(I)c1O [Rafoxanide]
AtT-20 cell viability at 25µM, % of control (AtT-20): 39.3%
viability at 24 h, 25 µM (in vitro [1]): 56.2%

Compound: CC(=O)Oc1c(I)cc(I)cc1C(=O)Nc1ccc(Cl)cc1 [Clioxanide]
viability at 24 h, 25 µM (in vitro [2]): 94.2%

Compound: O=C(Nc1ccc(Cl)cc1Cl)c1cc(I)cc(I)c1O [ZINC4181894]
viability at 24 h, 25 µM (in vitro [1]): 89.6%

Compound: O=C(Nc1cc(Cl)cc(Cl)c1)c1cc(I)cc(I)c1O [ZINC4014253]
viability at 24 h, 25 µM (in vitro [1]): 68%

IC50 (full length USP8; 0.1 µM Ub-Rho): 14.6 µM
Compound: Cc1ccc(NC(=O)c2cc(I)cc(I)c2O)cc1 [ZINC4014108]
viability at 24 h, 25 µM (in vitro [1]): 93.5%

Compound: O=C(CSc1ccccc1F)Nc1cccc(OCc2ccccn2)c1 [ZINC32922917]
viability at 24 h, 25 µM (in vitro [1]): 101%

Compound: O=C(Nc1ccc(O)cc1)c1cc(I)ccc1O [ZINC194061705]
viability at 24 h, 25 µM (in vitro [3]): 107%

Compound: O=C(Nc1ccc(Cl)cc1C(=O)c1ccccc1F)c1ccc(=O)[nH]c1 [ZINC9579366]
viability at 24 h, 25 µM (in vitro [3]): 103%

Compound: O=C(Nc1ccc([N+](=O)[O-])cc1Cl)c1cc(Cl)ccc1O [Niclosamide]
viability at 24 h, 27 µM (in vitro [2]): 50%

Compound: O=C(Nc1cc(Cl)cc(Cl)c1O)c1c(O)c(Cl)cc(Cl)c1Cl [Oxyclozanide]
viability at 24 h, 25 µM (in vitro [2]): 98.1%

Compound: Cc1ccc(NC(=O)Cn2ccccc2=O)c(OCc2ccccc2)c1 [ZINC55784788]
viability at 24 h, 25 µM (in vitro [3]): 96%

Compound: O=C(Nc1cc(Cl)ccc1Cl)c1cc(I)cc(I)c1O [ZINC4014105]
viability at 24 h, 25 µM (in vitro [1]): 95.7%

IC50 (full length USP8): > 50 µM
Compound: O=C(Nc1ccccc1)c1ccccc1O [salicylanilide backbone]

IC50 (full length USP8; 0.1 µM Ub-Rho): 11.9 µM
Compound: O=C(Nc1ccc(Cl)cc1)c1cc(I)cc(I)c1O [ZINC4014104]
viability at 24 h, 25 µM (in vitro [1]): 58.8%

Compound: Cc1ccc(C(=O)c2cc(NC(=O)c3cc(I)cc(I)c3O)ccc2Cl)cc1 [ZINC72119086]
viability at 24 h, 25 µM (in vitro [1]): 109%

Compound: O=C(NCc1cccc(OCc2ccccn2)c1)c1csc(Br)c1 [ZINC40111866]
viability at 24 h, 25 µM (in vitro [1]): 98.9%
